From patent US9546156B2, “N-bicyclic aryl,N'-pyrazolyl urea, thiourea, guanidine cyanoguanidine compounds as TrkA kinase inhibitors” (Array BioPharma Inc., priority 2012, dated 2017)

What was measured:
Assay in all cases: Off-target kinase profiling (KinaseProfiler)
Type in all cases: biochemical
Details in all cases: 10 μM, ATP near Km
AKT1 = target: T1, AKT1 (Homo sapiens, UniProt P31749)
T1 construct: purchased Millipore, Inc. (KinaseProfiler service)
Description: (§1) A representative compound (Example 16) of the invention was tested for off-target kinase activity at a concentration of 10 μM by Millipore, Inc. in their KinaseProfiler™ service against all the kinases available in their full kinase panel. The compound was run in duplicate at a concentration of ATP near the Km for each individual kinase according to Millipore's specifications. The results are shown in Table B. Data are reported as percent of control (POC) and are the average of the two replicates.

AURKA = target: T2, AURKA (Homo sapiens, UniProt O14965)
T2 construct: purchased Millipore, Inc. (KinaseProfiler service)
Description: as §1

CAMK4 = target: T3, CAMK4 (Homo sapiens, UniProt Q16566)
T3 construct: purchased Millipore, Inc. (KinaseProfiler service)
Description: as §1

CDK1/cyclinB = target: T4, CDK1/cyclinB (Homo sapiens, UniProt P06493)
T4 construct: purchased Millipore, Inc. (KinaseProfiler service)
Description: as §1

CDK5/p25 = target: T5, CDK5/p25 (Homo sapiens, UniProt Q00535)
T5 construct: purchased Millipore, Inc. (KinaseProfiler service)
Description: as §1

Flt4 = target: T6, Flt4 (Homo sapiens, UniProt P35916)
T6 construct: purchased Millipore, Inc. (KinaseProfiler service)
Description: as §1

Fyn = target: T7, Fyn (Homo sapiens, UniProt P06241)
T7 construct: purchased Millipore, Inc. (KinaseProfiler service)
Description: as §1

GRK6 = target: T8, GRK6 (Homo sapiens, UniProt P43250)
T8 construct: purchased Millipore, Inc. (KinaseProfiler service)
Description: as §1

HIPK1 = target: T9, HIPK1 (Homo sapiens, UniProt Q86Z02)
T9 construct: purchased Millipore, Inc. (KinaseProfiler service)
Description: as §1

HIPK2 = target: T10, HIPK2 (Homo sapiens, UniProt Q9H2X6)
T10 construct: purchased Millipore, Inc. (KinaseProfiler service)
Description: as §1

Haspin = target: T11, Haspin (Homo sapiens, UniProt Q8TF76)
T11 construct: purchased Millipore, Inc. (KinaseProfiler service)
Description: as §1

IKKbeta = target: T12, IKKbeta (Homo sapiens, UniProt O14920)
T12 construct: purchased Millipore, Inc. (KinaseProfiler service)
Description: as §1

IR Activated = target: T13, IR Activated (Homo sapiens, UniProt P06213)
T13 construct: purchased Millipore, Inc. (KinaseProfiler service)
Description: as §1

IRR = target: T14, IRR (Homo sapiens, UniProt P14616)
T14 construct: purchased Millipore, Inc. (KinaseProfiler service)
Description: as §1

JNK2alpha2 = target: T15, JNK2alpha2 (Homo sapiens, UniProt P45984)
T15 construct: purchased Millipore, Inc. (KinaseProfiler service)
Description: as §1

LIMK1 = target: T16, LIMK1 (Homo sapiens, UniProt P53667)
T16 construct: purchased Millipore, Inc. (KinaseProfiler service)
Description: as §1

MAPKAP-K2 = target: T17, MAPKAP-K2 (Homo sapiens, UniProt P49137)
T17 construct: purchased Millipore, Inc. (KinaseProfiler service)
Description: as §1

MAPKAP-K3 = target: T18, MAPKAP-K3 (Homo sapiens, UniProt Q16644)
T18 construct: purchased Millipore, Inc. (KinaseProfiler service)
Description: as §1

MARK1 = target: T19, MARK1 (Homo sapiens, UniProt Q9P0L2)
T19 construct: purchased Millipore, Inc. (KinaseProfiler service)
Description: as §1

MELK = target: T20, MELK (Homo sapiens, UniProt Q14680)
T20 construct: purchased Millipore, Inc. (KinaseProfiler service)
Description: as §1

MKNK2 = target: T21, MKNK2 (Homo sapiens, UniProt Q9HBH9)
T21 construct: purchased Millipore, Inc. (KinaseProfiler service)
Description: as §1

MLK1 = target: T22, MLK1 (Homo sapiens, UniProt P80192)
T22 construct: purchased Millipore, Inc. (KinaseProfiler service)
Description: as §1

MSK2 = target: T23, MSK2 (Homo sapiens, UniProt O75676)
T23 construct: purchased Millipore, Inc. (KinaseProfiler service)
Description: as §1

MST1 = target: T24, MST1 (Homo sapiens, UniProt Q13043)
T24 construct: purchased Millipore, Inc. (KinaseProfiler service)
Description: as §1

Mer = target: T25, Mer (Homo sapiens, UniProt Q12866)
T25 construct: purchased Millipore, Inc. (KinaseProfiler service)
Description: as §1

NEK6 = target: T26, NEK6 (Homo sapiens, UniProt Q9HC98)
T26 construct: purchased Millipore, Inc. (KinaseProfiler service)
Description: as §1

PAK6 = target: T27, PAK6 (Homo sapiens, UniProt Q9NQU5)
T27 construct: purchased Millipore, Inc. (KinaseProfiler service)
Description: as §1

PDGFRbeta = target: T28, PDGFRbeta (Homo sapiens, UniProt P09619)
T28 construct: purchased Millipore, Inc. (KinaseProfiler service)
Description: as §1

PKCbetaI = target: T29, PKCbetaI (Homo sapiens, UniProt P05771)
T29 construct: purchased Millipore, Inc. (KinaseProfiler service)
Description: as §1

PKCzeta = target: T30, PKCzeta (Homo sapiens, UniProt Q05513)
T30 construct: purchased Millipore, Inc. (KinaseProfiler service)
Description: as §1

PRKG1beta = target: T31, PRKG1beta (Homo sapiens, UniProt Q13976)
T31 construct: purchased Millipore, Inc. (KinaseProfiler service)
Description: as §1

ROCK-II = target: T32, ROCK-II (Homo sapiens, UniProt O75116)
T32 construct: purchased Millipore, Inc. (KinaseProfiler service)
Description: as §1

Rsk1 = target: T33, Rsk1 (Homo sapiens, UniProt Q15418)
T33 construct: purchased Millipore, Inc. (KinaseProfiler service)
Description: as §1

SRPK2 = target: T34, SRPK2 (Homo sapiens, UniProt P78362)
T34 construct: purchased Millipore, Inc. (KinaseProfiler service)
Description: as §1

TEC Activated = target: T35, TEC Activated (Homo sapiens, UniProt P42680)
T35 construct: purchased Millipore, Inc. (KinaseProfiler service)
Description: as §1

TSSK1 = target: T36, TSSK1 (Homo sapiens, UniProt Q9BXA7)
T36 construct: purchased Millipore, Inc. (KinaseProfiler service)
Description: as §1

Tie2 = target: T37, Tie2 (Homo sapiens, UniProt Q02763)
T37 construct: purchased Millipore, Inc. (KinaseProfiler service)
Description: as §1

WNK2 = target: T38, WNK2 (Homo sapiens, UniProt Q9Y3S1)
T38 construct: purchased Millipore, Inc. (KinaseProfiler service)
Description: as §1

c-RAF = target: T39, c-RAF (Homo sapiens, UniProt P04049, Y340D/Y341D)
T39 construct: purchased Millipore, Inc. (KinaseProfiler service)
Description: as §1

p38alpha = target: T40, p38alpha (Homo sapiens, UniProt Q16539)
T40 construct: purchased Millipore, Inc. (KinaseProfiler service)
Description: as §1

p38beta = target: T41, p38beta (Homo sapiens, UniProt Q15759)
T41 construct: purchased Millipore, Inc. (KinaseProfiler service)
Description: as §1

T32 sequence (O75116 whole entry): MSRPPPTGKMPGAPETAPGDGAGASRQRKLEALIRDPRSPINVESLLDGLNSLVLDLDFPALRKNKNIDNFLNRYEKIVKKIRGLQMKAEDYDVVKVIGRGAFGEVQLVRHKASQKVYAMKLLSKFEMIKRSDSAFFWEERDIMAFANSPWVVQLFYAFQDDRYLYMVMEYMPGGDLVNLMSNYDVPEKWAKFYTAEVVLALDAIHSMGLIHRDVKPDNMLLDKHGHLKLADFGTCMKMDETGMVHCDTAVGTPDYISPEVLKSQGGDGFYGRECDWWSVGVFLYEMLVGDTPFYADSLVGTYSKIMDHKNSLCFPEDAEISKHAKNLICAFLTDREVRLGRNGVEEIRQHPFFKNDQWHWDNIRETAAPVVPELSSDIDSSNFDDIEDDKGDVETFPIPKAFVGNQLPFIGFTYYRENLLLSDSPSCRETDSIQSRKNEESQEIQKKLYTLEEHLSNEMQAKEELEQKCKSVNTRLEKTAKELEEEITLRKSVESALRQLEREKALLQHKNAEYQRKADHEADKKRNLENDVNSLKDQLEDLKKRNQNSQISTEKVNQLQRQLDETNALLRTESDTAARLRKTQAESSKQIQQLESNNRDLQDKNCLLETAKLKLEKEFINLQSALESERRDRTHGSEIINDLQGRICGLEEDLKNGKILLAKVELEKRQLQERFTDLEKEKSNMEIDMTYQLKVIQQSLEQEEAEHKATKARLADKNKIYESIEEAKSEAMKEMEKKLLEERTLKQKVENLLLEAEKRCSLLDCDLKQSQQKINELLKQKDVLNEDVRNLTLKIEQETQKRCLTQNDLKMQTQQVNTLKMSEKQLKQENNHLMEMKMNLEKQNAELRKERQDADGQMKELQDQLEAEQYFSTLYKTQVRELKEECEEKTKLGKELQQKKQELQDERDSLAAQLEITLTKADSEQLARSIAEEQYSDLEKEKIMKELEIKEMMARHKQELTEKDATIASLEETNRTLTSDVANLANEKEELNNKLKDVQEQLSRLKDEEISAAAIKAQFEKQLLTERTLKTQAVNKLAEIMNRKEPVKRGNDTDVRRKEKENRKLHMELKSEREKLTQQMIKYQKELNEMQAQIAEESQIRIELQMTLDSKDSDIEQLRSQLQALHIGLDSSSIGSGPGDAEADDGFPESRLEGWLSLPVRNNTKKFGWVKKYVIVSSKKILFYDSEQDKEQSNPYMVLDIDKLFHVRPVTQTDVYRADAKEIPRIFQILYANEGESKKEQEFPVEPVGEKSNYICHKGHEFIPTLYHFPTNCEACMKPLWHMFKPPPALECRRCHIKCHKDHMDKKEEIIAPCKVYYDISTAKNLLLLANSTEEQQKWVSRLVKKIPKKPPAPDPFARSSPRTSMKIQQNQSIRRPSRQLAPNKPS
T26 sequence (Q9HC98 whole entry): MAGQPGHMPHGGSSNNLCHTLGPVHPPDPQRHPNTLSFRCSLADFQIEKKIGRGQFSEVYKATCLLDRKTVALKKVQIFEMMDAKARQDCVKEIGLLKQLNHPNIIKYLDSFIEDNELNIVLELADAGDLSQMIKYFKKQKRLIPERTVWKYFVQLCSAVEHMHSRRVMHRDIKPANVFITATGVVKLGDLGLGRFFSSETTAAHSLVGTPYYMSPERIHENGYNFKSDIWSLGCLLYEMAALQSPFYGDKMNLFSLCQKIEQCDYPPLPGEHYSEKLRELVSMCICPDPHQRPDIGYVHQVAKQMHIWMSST
T22 sequence (P80192 whole entry): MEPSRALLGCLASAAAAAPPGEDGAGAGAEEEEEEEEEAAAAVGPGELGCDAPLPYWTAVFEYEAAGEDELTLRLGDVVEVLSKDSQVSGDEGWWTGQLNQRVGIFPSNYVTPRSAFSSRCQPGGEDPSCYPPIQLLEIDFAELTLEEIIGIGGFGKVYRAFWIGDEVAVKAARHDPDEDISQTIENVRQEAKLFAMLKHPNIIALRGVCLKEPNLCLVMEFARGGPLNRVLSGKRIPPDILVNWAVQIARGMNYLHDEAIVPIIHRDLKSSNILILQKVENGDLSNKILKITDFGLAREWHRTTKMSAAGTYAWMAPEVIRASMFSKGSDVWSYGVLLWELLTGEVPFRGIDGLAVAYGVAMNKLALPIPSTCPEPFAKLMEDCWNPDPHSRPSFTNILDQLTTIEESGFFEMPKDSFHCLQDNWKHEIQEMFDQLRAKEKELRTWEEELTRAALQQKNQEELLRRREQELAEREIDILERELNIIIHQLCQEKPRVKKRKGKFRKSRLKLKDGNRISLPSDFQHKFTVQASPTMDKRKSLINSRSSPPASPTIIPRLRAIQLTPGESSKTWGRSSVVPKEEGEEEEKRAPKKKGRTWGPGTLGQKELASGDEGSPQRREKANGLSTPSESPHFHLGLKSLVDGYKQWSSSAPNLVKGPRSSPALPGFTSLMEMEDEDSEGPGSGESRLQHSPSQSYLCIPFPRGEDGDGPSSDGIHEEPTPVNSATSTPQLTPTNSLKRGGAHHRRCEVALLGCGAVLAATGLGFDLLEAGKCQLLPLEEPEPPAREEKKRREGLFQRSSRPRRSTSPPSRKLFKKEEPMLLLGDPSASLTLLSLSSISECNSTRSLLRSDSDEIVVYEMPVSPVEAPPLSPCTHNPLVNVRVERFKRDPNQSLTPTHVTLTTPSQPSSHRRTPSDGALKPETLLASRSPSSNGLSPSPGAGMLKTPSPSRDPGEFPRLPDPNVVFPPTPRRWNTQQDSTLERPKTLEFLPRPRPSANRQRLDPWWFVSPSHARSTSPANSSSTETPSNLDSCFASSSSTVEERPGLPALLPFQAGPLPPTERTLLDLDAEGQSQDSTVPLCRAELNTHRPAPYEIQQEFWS
T41 sequence (Q15759 whole entry): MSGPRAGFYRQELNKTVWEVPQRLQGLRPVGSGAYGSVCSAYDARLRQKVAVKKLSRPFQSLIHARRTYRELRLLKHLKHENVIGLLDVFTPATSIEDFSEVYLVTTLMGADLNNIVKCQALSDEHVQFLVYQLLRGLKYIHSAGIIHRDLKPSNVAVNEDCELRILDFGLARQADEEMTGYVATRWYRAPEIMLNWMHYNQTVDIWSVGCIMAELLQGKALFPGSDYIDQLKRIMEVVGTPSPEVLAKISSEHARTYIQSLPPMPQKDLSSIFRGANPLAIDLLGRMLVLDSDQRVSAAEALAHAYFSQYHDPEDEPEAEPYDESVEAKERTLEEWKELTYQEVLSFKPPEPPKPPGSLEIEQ
T37 sequence (Q02763 23-1124): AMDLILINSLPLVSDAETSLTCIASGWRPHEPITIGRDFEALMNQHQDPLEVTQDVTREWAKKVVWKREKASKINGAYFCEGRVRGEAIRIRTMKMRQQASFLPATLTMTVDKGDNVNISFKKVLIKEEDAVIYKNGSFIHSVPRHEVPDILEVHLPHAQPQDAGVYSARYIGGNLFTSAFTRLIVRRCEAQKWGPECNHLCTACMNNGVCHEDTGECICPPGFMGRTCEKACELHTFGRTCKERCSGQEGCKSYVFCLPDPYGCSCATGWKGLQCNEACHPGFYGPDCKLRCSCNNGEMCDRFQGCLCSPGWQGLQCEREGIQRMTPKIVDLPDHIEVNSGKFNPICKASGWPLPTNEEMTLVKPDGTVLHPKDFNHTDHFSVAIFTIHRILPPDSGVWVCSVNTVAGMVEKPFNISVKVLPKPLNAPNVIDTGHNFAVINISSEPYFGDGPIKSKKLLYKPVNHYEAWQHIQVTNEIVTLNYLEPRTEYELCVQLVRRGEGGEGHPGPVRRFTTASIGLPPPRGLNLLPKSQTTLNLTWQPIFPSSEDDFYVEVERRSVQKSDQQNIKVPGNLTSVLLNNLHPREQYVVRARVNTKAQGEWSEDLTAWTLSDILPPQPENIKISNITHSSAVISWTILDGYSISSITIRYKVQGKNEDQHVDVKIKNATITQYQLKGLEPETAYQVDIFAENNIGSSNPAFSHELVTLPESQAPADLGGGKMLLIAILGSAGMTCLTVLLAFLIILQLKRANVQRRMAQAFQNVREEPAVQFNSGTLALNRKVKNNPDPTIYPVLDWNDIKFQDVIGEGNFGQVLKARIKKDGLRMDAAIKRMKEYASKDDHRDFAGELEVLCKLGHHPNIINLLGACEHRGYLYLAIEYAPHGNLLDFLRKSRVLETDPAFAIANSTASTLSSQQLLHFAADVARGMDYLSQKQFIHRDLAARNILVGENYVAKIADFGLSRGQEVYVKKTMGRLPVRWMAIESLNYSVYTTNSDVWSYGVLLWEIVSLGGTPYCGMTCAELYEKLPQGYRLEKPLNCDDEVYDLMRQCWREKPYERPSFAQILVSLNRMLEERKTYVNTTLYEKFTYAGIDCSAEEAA
T2 sequence (O14965 whole entry): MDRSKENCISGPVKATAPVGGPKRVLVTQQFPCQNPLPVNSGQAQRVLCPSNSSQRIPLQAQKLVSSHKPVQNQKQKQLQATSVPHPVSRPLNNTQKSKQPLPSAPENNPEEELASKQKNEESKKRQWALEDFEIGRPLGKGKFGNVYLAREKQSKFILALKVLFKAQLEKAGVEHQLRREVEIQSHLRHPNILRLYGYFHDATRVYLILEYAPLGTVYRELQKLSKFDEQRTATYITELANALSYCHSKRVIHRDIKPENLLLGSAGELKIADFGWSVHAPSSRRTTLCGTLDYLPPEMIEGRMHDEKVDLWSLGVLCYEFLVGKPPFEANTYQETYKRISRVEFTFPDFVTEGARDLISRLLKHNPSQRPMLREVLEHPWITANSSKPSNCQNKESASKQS
T40 sequence (Q16539 whole entry): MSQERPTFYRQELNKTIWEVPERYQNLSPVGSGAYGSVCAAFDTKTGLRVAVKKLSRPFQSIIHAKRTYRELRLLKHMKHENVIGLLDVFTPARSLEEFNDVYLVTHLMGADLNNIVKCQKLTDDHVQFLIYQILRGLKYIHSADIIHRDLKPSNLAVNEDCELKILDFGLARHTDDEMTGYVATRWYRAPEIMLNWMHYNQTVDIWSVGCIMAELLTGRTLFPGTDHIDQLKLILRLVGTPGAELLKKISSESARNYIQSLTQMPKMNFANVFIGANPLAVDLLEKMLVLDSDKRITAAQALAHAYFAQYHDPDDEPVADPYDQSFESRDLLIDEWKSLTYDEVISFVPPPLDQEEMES

## COCc1ccc2cccc(NC(=O)Nc3c(C)c(-c4cnn(C)c4)nn3-c3ccccc3)c2c1 [Example 16, 1-(1′,4-dimethyl-1-phenyl-1H,1′H-[3,4′-bipyrazol]-5-yl)-3-(7-(methoxymethyl)naphthalen-1-yl)urea]
AKT1
  Avg POC: 129 POC
AURKA
  Avg POC: 128 POC
CAMK4
  Avg POC: 127 POC
CDK1/cyclinB
  Avg POC: 117.5 POC
CDK5/p25
  Avg POC: 110.5 POC
Flt4
  Avg POC: 108 POC
Fyn
  Avg POC: 112.5 POC
GRK6
  Avg POC: 106 POC
HIPK1
  Avg POC: 119 POC
HIPK2
  Avg POC: 97 POC
Haspin
  Avg POC: 137.5 POC
IKKbeta
  Avg POC: 130.5 POC
IR Activated
  Avg POC: 102.5 POC
IRR
  Avg POC: 102.5 POC
JNK2alpha2
  Avg POC: 126.5 POC
LIMK1
  Avg POC: 105.5 POC
MAPKAP-K2
  Avg POC: 128 POC
MAPKAP-K3
  Avg POC: 126.5 POC
MARK1
  Avg POC: 94.5 POC
MELK
  Avg POC: 135.5 POC
MKNK2
  Avg POC: 118.5 POC
MLK1
  Avg POC: 106 POC
MSK2
  Avg POC: 107 POC
MST1
  Avg POC: 111.5 POC
Mer
  Avg POC: 116 POC
NEK6
  Avg POC: 120 POC
PAK6
  Avg POC: 125 POC
PDGFRbeta
  Avg POC: 136.5 POC
PKCbetaI
  Avg POC: 97 POC
PKCzeta
  Avg POC: 123 POC
PRKG1beta
  Avg POC: 119 POC
ROCK-II
  Avg POC: 105 POC
Rsk1
  Avg POC: 226.5 POC
SRPK2
  Avg POC: 105.5 POC
TEC Activated
  Avg POC: 121.5 POC
TSSK1
  Avg POC: 104.5 POC
Tie2
  Avg POC: 148.5 POC
WNK2
  Avg POC: 122.5 POC
c-RAF
  Avg POC: 114 POC
p38alpha
  Avg POC: 117 POC
p38beta
  Avg POC: 117 POC
